Reference: patent US20240299421A1, “CANNABIDIOL COMPOSITIONS AND USES THEREOF” (PHARMOTECH SA, priority 2020, published 2024)
“Also recorded” adds a separate entry of the source.

How the values were obtained:
[1] = LC-MS/MS CBD dosing in blood/plasma after topical application; format: in vivo, Equus caballus (horse) and Equus ferus caballus (poney)
IBH horse skin lesions = test: Topical CBD oil formulation on skin lesions of horses diagnosed with IBH (pruritus score, IBH lesion score); format: in vivo, Equus caballus (horse) and Equus ferus caballus (poney); conditions: 1% (w/w) CBD in sesame oil, topical once daily, 4 weeks
Description: (§1) The application was made by hand (using a cotton) and a glove was used for massaging the product into the affected skin area. Each horse received at minimum 1 bottle of 100 ml on Day 1 and 1 Bottle on Day 14, administration was indicated to be daily. Larger volumes have been used for larger lesions.
(§2) Safety parameters were measured by hematology measures and serum amyloid A (SSA) measures and IBH lesion score was calculated as detailed in Fettelschoss-Gabriel et al., 2018, J Allergy Clin Immunol 142(4): 1194-1205 at the beginning and at the end of the study as a disease specific observation. […] Pruritus was scored from 1-5 for each skin area affected and was calculated taking into account 3 main factors: tail scratching; mane scratching and belly scratching on ground/floor. SUM Score Pruritus-Day 1: 6 Pruritus score was calculated for Day 1, Day 14, Day 28
Then, the mean was calculated. Main pruritus signs are: tail scratching, mane scratching, face scratching and sometimes rolling on the ground for belly scratching.

[2] = Safety parameters by hematology measures; format: in vivo, Equus caballus (horse) and Equus ferus caballus (poney); conditions: 1% (w/w) CBD topical, 4 weeks
Description: as §1, §2

CB2 receptors = CB2 receptors (Homo sapiens, UniProt P34972); conditions: compared with THC; cited from earlier work
Sequence of CB2 receptors (P34972 whole entry): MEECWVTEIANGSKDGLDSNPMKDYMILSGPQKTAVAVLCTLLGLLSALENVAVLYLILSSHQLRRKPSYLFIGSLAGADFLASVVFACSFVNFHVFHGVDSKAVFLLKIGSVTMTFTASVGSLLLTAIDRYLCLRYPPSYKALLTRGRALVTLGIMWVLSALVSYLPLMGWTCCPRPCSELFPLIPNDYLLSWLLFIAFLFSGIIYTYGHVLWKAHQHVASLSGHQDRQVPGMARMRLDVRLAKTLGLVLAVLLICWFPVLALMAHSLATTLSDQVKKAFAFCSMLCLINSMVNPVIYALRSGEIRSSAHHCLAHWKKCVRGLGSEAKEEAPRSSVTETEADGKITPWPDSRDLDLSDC

Question: With `C=C(C)[C@@H]1CCC(C)=C[C@H]1c1c(O)cc(CCCCC)cc1O` [CBD, 2-[(1R,6R)-6-isopropenyl-3-methylcyclohex-2-en-1-yl]-5-pentylbenzene-1,3-diol] as the compound, how does the “CBD concentration in plasma” value ([1]; 1% topical concentration, LC-MS/MS) read?
Answer: not found in detectable concentrations

Question: And the systemic absorption ([1]; at 1% topical concentration)?
Answer: negligible

Question: What about the “IBH symptoms during treatment (IBH lesion score)” value (IBH horse skin lesions; 11 animals with mild to moderate IBH) of the same compound?
Answer: clear decrease

Question: What about the “pruritus symptoms during treatment (pruritus score)” value (IBH horse skin lesions; score Day 1, Day 14, Day 28) of the same compound?
Answer: reduce pruritus score; also recorded: clear decrease

Question: And the WBC count [2]?
Answer: No particular trend

Question: And the eosinophile count [2]?
Answer: No particular trend

Question: What about the “affinity for CB2 receptors” value (CB2 receptors) of the same compound?
Answer: very low affinity
